These results are taken from patent EP0804408B1, “NOVEL 4-SUBSTITUTED 2,6-DI-TERT-BUTYLPHENOL COMPOUNDS, PHARMACEUTICAL COMPOSITIONS CONTAINING SAME AND PREPARATION METHOD THEREFOR” (priority 1994, dated 1996).

For the test, the system named is NO-synthase inductible (iNOS). Kind of test: iNOS induction test: nitrites in RAW264.7 supernatants by Griess reaction after nitrate reduction. The class given is cell-based, murins. The conditions noted are these: IFNγ + LPS. An excerpt:
Cette hypothèse a été contrôlée en dosant les nitrites dans des surnageants de culture de macrophages murins de lignées activées en présence de AVF1. Les nitrites ont été dosés par la réaction de Griess après réduction de tous le nitrates grâce à la nitrate réductase de Pseudomonas oleoverans (Granger et al., J. Immunol., 1991, 146, 1294-1302). La spécificité de la réaction a été prouvée par l'emploi d'un inhibiteur spécifique de la synthèse du monoxyde d'azote, la N^G-monométhyl-L-arginine (L-NMMA).
Le test d'induction iNOS consiste à ensemencer les macrophages RAW264.7 dans des plaques à 24 puits à raison de 1 x 10^6 sous 1,6 ml. Après 24 heures de culture permettant d'obtenir un tapis cellulaire complet, AVF1, dilué de raison 10 dans des des doses ne donnant pas de toxicité cellulaire (de 10^-6 à 10^-8 %), est ajouté dans 100 µl par cupule soit sur des macrophages sans activateur, avec ou sans l'inhibiteur de iNOS (action directe du produit sur les macrophages) soit en présence des inducteurs, avec ou sans inhibiteur (action du produit sur des macrophages activés).
Après 24 heures de culture, les surnageants sont prélevés, centrifugés 10 minutes à 100 g à température ambiantes pour éliminer les éventuels débris cellulaires puis utilisés pour le dosage des nitrites.
Deux volumes des surnageants clarifiés sont réduits en présence d'un volume d'une suspension de Pseudomonas oleovorans à 100 mg/ml et un volume de D-MEM sans rouge de phénol. Après une incubation de 90 minutes à 37°C sans agitation, les mélanges sont centrifugés 5 minutes à 4 000 g pour éliminer les bactéries et dilués au 1/5 et au 1/10 en eau distillée stérile.
100 µl des échantillons réduits et dilués sont distribués dans des séries de 2 puits dans une plaque ELISA (maxicorp, Nunc.). 200 µl du réactif de Griess (mélange ex-temporané volume à volume des solutions de sulfamide à 1,5 g/100 ml de HCl 1,2 N (87,1 mM) - réactif A - et de naphtylènediamine à 0,15 g/100 ml d'eau stérile (5,78 mM) - réactif B -) sont ajoutés.
Cent autres µl d'échantillon servant de blanc de DO sont distribués et mélangés à 200 µl d'un mélange ex-temporané volume à volume d'eau distillée et du réactif colorimétrique A.
Après 30 minutes à température ambiante à l'obscurité, la densité optique (DO) des échantillons est lue à 540 nm au lecteur de plaque pour ELISA.
• Les contrôles du système d'induction iNOS sont composés de : • . Témoin cellules consistant en des macrophages ne recevant que du milieu de culture. • . Témoin d'induction consistant en des macrophages traités par 100 µl de lipopolysaccharide (LPS à 4 µg/ml, Difco) et par 100 µl d'interféron-γ recombinant (IFN-γ à 1 µU/ml, Boerhinger-Mannheim) afin d'activer la iNOS (Schmidt et al., Mol. Pharmacol., 1992, 41, 614-624). Les solutions mères de LPS et de IFN-γont été conservées respectivement à +4°C et à -20°C avant utilisation. • . Témoin d'inhibition spécifique pour prouver que les nitrites dosés proviennent de l'activation de la iNOS. Il consiste à incorporer à la culture un inhibiteur spécifique, la L-NMMA (N^G-monométhyl-L-arginine, Calbiochem) (Hibbs et al., Science, 1987, 235, 473-476) à des concentrations de raison 10 allant de 3 à 300 µM. Cette solution a été conservée sous parties aliquotes à -20°C avant utilisation. • Les contrôles de la réaction de Greiss sont composés de : • . Une solution de nitrate de sodium qui permet de contrôler l'activité nitrate-réductase des bactéries. • . Une gamme étalon de nitrite de sodium qui permet de doser les nitrites dans les échantillons. • Le blanc de DO de la gamme étalon contenant 100 µl d'eau distillée et 200 µl du mélange des réactifs A et B.

The mark [1] stands for this setting: L-NMMA (300 µM) alone (no AVF1).

For the compound `CNC(=N)NCCC[C@H](N)C(=O)O` [L-NMMA, N^G-monométhyl-L-arginine, reference compound], the “Concentration moyenne en nitrites en µM sur 2 échantillons” value reads like this: (L-NMMA (3 µM) alone (no AVF1)) 20,9 µM; (L-NMMA (30 µM) alone (no AVF1)) 14,7 µM; under setting [1], 9,3 µM. For the same compound, the “Pourcentage d'inhibition de la production de nitrite” value stood at 0% (L-NMMA (3 µM) alone (no AVF1)), 29% (L-NMMA (30 µM) alone (no AVF1)) and 55% under setting [1].
